Test [1] deals with T1, Apoptotic protease-activating factor 1 (Homo sapiens, UniProt O14727).
T1 sequence (O14727 whole entry): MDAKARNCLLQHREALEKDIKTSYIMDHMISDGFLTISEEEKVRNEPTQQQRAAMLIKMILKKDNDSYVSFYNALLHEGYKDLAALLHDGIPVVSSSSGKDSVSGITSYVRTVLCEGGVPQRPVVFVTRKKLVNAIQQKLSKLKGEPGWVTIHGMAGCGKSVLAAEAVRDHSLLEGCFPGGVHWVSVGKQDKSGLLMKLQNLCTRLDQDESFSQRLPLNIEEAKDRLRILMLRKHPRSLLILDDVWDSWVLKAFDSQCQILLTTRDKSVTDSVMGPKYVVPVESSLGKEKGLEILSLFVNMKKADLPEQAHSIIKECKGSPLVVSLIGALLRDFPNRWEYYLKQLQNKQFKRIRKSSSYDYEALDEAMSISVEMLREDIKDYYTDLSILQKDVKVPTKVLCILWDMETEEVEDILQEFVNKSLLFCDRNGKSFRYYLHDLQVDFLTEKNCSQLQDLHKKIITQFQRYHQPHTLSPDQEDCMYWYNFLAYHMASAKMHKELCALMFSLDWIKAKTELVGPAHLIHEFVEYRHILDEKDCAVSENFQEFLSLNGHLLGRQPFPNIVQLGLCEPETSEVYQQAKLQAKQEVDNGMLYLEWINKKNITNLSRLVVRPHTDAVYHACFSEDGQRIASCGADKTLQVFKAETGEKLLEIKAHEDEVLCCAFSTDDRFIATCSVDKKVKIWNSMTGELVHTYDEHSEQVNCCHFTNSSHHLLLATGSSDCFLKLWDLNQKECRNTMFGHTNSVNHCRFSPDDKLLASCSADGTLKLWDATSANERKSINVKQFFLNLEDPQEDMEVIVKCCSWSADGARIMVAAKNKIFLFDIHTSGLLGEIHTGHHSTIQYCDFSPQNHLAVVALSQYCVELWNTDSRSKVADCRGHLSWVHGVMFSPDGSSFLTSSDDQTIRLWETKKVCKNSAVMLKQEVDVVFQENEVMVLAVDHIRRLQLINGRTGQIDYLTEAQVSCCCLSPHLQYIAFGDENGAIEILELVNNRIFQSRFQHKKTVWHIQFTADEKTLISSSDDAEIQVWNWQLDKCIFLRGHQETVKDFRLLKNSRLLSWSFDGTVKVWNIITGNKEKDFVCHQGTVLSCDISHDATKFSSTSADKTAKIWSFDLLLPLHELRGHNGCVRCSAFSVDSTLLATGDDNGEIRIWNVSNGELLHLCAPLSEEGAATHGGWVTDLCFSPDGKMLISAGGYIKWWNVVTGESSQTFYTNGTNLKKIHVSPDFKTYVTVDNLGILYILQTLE
Briefly: SAR analysis of small molecule Activators of Apaf-1 in a Fluorescent assay. In kind it is functional. The following applies: read-out: EC50_Mean.

Test [2] deals with T2, Caspase-3 (Homo sapiens, UniProt P42574).
T2 sequence (P42574 whole entry): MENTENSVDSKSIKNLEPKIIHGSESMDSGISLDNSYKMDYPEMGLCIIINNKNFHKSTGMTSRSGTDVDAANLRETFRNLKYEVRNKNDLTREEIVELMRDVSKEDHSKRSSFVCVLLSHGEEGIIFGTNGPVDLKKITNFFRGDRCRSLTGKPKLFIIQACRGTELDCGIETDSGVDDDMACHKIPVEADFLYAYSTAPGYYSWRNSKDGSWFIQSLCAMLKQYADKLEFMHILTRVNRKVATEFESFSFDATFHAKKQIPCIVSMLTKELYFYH
The experiment in a line: inhibition of recombinant caspase-3 activity – biochemical, luminescence, set 2, selectivity assay for SENP protease inhibitor project, SAR follow-up (AID 588599). The test is classed as functional.

Test [3] addresses T3, Sentrin-specific protease 8 (Homo sapiens, UniProt Q96LD8).
T3 sequence (Q96LD8 whole entry): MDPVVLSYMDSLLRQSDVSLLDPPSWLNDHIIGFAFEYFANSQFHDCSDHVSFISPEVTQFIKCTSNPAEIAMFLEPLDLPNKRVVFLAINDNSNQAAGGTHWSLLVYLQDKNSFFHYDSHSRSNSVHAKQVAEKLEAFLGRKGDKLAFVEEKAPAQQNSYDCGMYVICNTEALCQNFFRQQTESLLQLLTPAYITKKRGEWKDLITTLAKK
The experiment in a line: inhibition of sentrin protease 8 – biochemical, luminescence, set 2, SAR follow-up (AID 588601). The test is classed as functional.

Test [4] addresses T4, Sentrin-specific protease 7 (Homo sapiens, UniProt Q9BQF6).
T4 sequence (Q9BQF6 whole entry): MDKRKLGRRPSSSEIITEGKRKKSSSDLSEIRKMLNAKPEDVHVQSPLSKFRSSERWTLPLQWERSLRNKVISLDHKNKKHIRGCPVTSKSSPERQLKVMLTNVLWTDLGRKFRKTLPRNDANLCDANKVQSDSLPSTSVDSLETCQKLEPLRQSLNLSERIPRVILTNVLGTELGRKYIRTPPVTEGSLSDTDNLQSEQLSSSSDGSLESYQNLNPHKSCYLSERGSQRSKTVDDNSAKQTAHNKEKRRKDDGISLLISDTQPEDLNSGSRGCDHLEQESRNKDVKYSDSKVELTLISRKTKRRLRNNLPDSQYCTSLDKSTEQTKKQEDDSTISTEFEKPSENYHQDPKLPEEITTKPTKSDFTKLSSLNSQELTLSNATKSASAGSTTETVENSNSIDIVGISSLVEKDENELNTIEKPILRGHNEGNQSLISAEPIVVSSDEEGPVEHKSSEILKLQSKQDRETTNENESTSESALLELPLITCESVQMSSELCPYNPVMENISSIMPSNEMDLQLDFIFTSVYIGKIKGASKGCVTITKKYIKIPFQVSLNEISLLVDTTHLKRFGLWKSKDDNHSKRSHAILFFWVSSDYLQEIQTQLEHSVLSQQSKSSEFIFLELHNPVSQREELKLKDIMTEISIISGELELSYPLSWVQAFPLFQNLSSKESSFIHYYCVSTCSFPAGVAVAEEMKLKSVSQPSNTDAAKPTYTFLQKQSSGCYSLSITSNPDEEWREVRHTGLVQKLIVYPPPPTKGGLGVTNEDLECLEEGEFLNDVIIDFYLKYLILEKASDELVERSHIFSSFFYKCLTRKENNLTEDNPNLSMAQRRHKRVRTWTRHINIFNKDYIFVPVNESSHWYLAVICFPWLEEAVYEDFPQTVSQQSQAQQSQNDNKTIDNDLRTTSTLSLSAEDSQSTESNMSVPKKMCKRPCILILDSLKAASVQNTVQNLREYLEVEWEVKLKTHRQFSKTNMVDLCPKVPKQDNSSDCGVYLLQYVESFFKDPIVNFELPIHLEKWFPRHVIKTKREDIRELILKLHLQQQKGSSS
Briefly: inhibition of human SENP7 cleavage activity – biochemical, luminescence, set 2, SAR follow-up (AID 588600). The test is classed as functional.

The target in test [5] is T5, Sentrin-specific protease 6 (Homo sapiens, UniProt Q9GZR1).
T5 sequence (Q9GZR1 whole entry): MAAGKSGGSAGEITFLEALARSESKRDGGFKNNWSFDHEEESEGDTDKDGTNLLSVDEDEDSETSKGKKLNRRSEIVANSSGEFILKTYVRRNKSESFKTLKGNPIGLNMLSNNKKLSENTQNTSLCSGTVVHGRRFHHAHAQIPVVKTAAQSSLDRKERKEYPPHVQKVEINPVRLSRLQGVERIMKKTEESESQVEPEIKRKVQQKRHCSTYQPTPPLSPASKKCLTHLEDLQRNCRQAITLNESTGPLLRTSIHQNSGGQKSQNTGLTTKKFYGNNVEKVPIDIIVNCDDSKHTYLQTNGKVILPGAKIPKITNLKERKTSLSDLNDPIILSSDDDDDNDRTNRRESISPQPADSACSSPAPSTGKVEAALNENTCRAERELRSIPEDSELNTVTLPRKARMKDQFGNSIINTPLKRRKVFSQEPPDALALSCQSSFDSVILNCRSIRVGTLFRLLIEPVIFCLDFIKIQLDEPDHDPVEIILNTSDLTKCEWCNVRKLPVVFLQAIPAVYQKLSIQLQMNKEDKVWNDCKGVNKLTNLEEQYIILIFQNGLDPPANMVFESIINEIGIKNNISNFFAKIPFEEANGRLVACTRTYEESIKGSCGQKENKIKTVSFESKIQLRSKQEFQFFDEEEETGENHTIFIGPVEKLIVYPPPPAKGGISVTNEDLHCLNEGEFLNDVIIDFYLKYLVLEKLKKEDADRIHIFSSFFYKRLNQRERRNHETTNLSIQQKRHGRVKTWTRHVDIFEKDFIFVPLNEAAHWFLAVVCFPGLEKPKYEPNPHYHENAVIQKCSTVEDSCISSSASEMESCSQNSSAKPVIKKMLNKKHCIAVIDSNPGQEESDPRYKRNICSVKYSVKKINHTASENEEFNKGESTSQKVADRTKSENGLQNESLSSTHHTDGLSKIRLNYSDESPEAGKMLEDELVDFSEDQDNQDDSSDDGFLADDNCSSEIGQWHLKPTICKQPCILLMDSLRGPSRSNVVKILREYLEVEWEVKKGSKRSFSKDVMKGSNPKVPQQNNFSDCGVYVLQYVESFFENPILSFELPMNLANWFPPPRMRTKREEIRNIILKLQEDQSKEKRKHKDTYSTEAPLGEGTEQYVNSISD
Briefly: inhibition of human SENP6 catalytic domain – biochemical, luminescence, set 2, SAR follow-up (AID 588598). The test is classed as functional.

Test [6] is described as follows: Trypanosoma cruzi growth suppression in host cells – NIH3T3 host cells, beta-gal luminescence, confirmation (AID 2044).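 Further: intracellular parasites grown in NIH/3T3 mouse fibroblasts as host cells; luminescent beta-galactosidase reporter signal from transgenic T. cruzi replicating inside host cells; inhibitors lower the luminescence signal.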 The test is classed as functional, cell-based.
Test [7] in a line: NIH3T3 cell viability loss – ATP luminescence, mouse fibroblasts, counter-screen, dose response (AID 2010).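 Further: cells exposed to compound for about 90 hours before reading.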 In kind it is functional, cell-based.
For test [8], the target named is T3, Sentrin-specific protease 8. Briefly: inhibition of human SENP8 cleavage activity – biochemical, luminescence, SAR follow-up (AID 504501). The test is classed as functional.
The target in test [9] is T2, Caspase-3. Briefly: SAR Analysis of small molecule inhibitors of Sentrin-specific proteases (SENPs) using a Caspase-3 Selectivity assay. [Related pubchem assays (depositor defined):AID2540, AID2599, AID434973, AID489001]. The test is classed as functional.
Test [10] concerns the target T5, Sentrin-specific protease 6. The experiment in a line: SAR Analysis of small molecule inhibitors of Sentrin-specific protease 6 (SENP6) using a Luminescent assay. [Related pubchem assays (depositor defined):AID2582, AID2599]. In kind it is functional.
Test [11] has as its target T4, Sentrin-specific protease 7. Briefly: inhibition of human SENP7 cleavage activity – biochemical, luminescence, SAR follow-up (AID 504497). The test is classed as functional.
Another test addresses Aurora kinase A (Homo sapiens, UniProt O14965). In kind it is functional.
A further test addresses Aurora kinase B (Homo sapiens, UniProt Q96GD4). In kind it is functional.
Another test relates to P388/ADR. Briefly: cells. The test is classed as functional. The following applies: Mus musculus.
Another test concerns SN12K1. Briefly: cells. In kind it is functional. The following applies: Homo sapiens.
The next test deals with P388. The experiment in a line: cells. The following applies: Mus musculus. In kind it is functional.

Structures are written as SMILES. Activity calls are given as the source filed them.
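Wherever EC50 Mean is given: caspase-3 cleavage of fluorogenic Rh110 DEVD substrate downstream of apoptosome activation.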

Aurora kinase A, sequence (O14965 whole entry): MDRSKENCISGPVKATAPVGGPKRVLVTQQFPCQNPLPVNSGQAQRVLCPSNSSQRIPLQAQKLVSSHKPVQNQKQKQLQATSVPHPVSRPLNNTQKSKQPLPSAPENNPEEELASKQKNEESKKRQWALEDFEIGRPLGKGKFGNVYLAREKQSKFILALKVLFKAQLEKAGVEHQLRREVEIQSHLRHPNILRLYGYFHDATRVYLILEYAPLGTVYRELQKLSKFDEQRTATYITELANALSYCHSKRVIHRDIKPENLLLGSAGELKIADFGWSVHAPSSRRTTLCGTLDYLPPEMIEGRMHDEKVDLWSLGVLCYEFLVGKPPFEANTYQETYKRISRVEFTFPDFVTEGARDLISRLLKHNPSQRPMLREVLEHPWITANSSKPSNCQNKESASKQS
Aurora kinase B, sequence (Q96GD4 whole entry): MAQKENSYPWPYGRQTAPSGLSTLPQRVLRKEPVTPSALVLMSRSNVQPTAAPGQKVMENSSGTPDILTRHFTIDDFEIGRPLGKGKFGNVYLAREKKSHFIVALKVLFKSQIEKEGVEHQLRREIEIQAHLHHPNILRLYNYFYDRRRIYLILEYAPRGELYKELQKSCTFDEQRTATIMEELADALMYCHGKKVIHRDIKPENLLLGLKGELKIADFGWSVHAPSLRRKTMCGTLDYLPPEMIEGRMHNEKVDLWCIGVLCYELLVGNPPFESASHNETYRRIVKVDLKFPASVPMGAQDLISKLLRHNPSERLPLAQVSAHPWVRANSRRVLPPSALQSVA

For the molecule `CC(C)(C)c1ccc(C(=O)NC(CCc2ccccc2)CC(=O)O)cc1` (configuration not stated), the EC50 in test [1] was > 100 µM (inactive).

Consider `Cc1ccc(N2CC(NC(=O)C(=O)c3c(C)[nH]c4ccccc34)CC2=O)cc1` (configuration not stated), for which the IC50 (on Caspase-3 [2]; in test [3]; in test [4]; in test [5]) was > 99 µM (inactive) throughout.

As to `O=C(Nc1nc2ccc(Cl)cc2s1)C1CC1`, the figures for the EC50 in [6] and in [7] were 0.119 µM (active) and > 16 µM (not active), respectively. For the same molecule, the IC50 (in general, the concentration needed to halve the response being measured) in test [8] is > 99 µM (inactive); on Caspase-3 [2], 28.9 µM (active); in test [3] it was 5.97 µM (active); on Caspase-3 [9], 25 µM (active); in [4] it was 7.46 µM (active); in test [10] it was > 99 µM (inactive). Also, the figures for the IC50 in [5] and in test [11] were 24.6 µM (active) and 5.9 µM (active), respectively.

`COCCOC1CCC(n2nc(-c3ccc(Nc4nc5cc(Br)cc(C)c5o4)cc3)c3c(N)ncnc32)CC1` (configuration not stated): the Ki (in general, a dissociation constant, usually derived from enzyme kinetics or from competition with a known ligand) was 0.00398 µM (active) at Aurora kinase A and 0.00316 µM (active) at Aurora kinase B.

As to `COC(=O)C[C@](O)(CCC(C)(C)O)C(=O)O[C@@H]1C(OC)=C[C@]23CCCN2CCc2cc4c(cc2[C@H]13)OCO4` [HARRINGTONINE], the GI50 (as a rule, the concentration that inhibits growth by half) with P388/ADR was 0.738 µM (active); in the test on SN12K1 it was 0.0661 µM (active); in the test with P388 it was 0.0252 µM (active).

With `COC1OCC(O)C(NC(=O)N(C)N=O)C1O` (configuration not stated), the GI50 in the test with P388/ADR, in the test on SN12K1 and in the test with P388 was > 100 µM (inactive) in each case.

`CCCCc1ccc2nc(NC(=O)c3sccc3C)sc2c1`: the IC50 in test [8] is 0.672 µM (active); at Caspase-3 [9], 0.541 µM (active); in test [10] it was 0.742 µM (active); in [11], 0.854 µM (active).

Values taken from ChEMBL document CHEMBL1201862, “PubChem BioAssay data set” (2004).
